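A five-concentration, 48-hour dose response in 96-well plates underlies each endpoint, interpolated linearly between surrounding concentrations. The concentration for 50% growth inhibition is given as GI50. The concentration for full growth arrest is given as TGI.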
Columns and labels:
Assay in all cases: NCI tumour cell line growth inhibition, 48 h
[1] = test system: MOLT-4 leukemia
[2] = test system: EKVX NSCLC
[3] = test system: SF-295 CNS
[4] = test system: LOX IMVI melanoma
[5] = test system: UACC-62 melanoma
[6] = test system: SNB-19 CNS
[7] = test system: HOP-92 NSCLC
[8] = test system: RXF 393 renal
[9] = test system: COLO 205 colon
[10] = test system: CCRF-CEM leukemia

COc1ccc(C(=O)c2no[n+]([O-])c2C(=O)c2ccc(OC)cc2)cc1
GI50 [1]: 1.93 µM
TGI [1]: 4.25 µM
GI50 [2]: 7.54 µM
TGI [2]: 22.5 µM
GI50 [3]: 17.8 µM
TGI [3]: 34.7 µM
GI50 [4]: 1.14 µM
TGI [4]: 2.53 µM
GI50 [5]: 10.3 µM
TGI [5]: 23.9 µM
GI50 [6]: 42.2 µM
TGI [6]: > 100 µM
GI50 [7]: 1.72 µM
TGI [7]: 3.96 µM
GI50 [8]: 2.25 µM
TGI [8]: 5.93 µM
GI50 [9]: 1.77 µM
TGI [9]: 3.37 µM

O=C1OC(=O)c2c1cc1cc3c(cc1c2-c1ccc2c(c1)OCO2)OCO3
TGI [1]: > 100 µM
TGI [3]: > 100 µM
TGI [5]: > 100 µM
TGI [6]: > 100 µM
TGI [10]: > 100 µM
TGI [7]: > 100 µM
TGI [8]: > 100 µM
TGI [9]: > 100 µM

O=[N+]([O-])c1cc2c(ccc3ccccc32)o1
GI50 [1]: 0.47 µM
TGI [1]: 73.9 µM
GI50 [3]: 0.347 µM
TGI [3]: 3.34 µM
GI50 [4]: 0.166 µM
TGI [4]: 0.487 µM
GI50 [5]: 0.426 µM
TGI [5]: 1.72 µM
GI50 [6]: 0.966 µM
TGI [6]: > 35.4 µM
GI50 [10]: 0.47 µM
TGI [10]: > 35.6 µM
GI50 [7]: 0.257 µM
TGI [7]: 0.774 µM
GI50 [8]: 0.311 µM
TGI [8]: 0.789 µM
GI50 [9]: 0.268 µM
TGI [9]: 1.04 µM

C[C@H]1CCC/C=C/[C@@H]2C[C@H](O)C[C@H]2[C@H](O)C(O)C(O)C(=O)O1 (stereo partly drawn)
GI50 [1]: 0.906 µM
TGI [1]: 4.56 µM
GI50 [2]: 4.24 µM
TGI [2]: > 100 µM
GI50 [3]: 4.66 µM
TGI [3]: > 100 µM
GI50 [5]: 1.07 µM
GI50 [6]: 3.35 µM
TGI [6]: > 100 µM
GI50 [10]: 2.73 µM
TGI [10]: > 25.9 µM
GI50 [8]: 2.52 µM
TGI [8]: > 24.6 µM
GI50 [9]: 4.07 µM
TGI [9]: > 100 µM

CC1(C)CCOC(Sc2ccccc2)C1 (stereo not drawn)
TGI [1]: > 100 µM
TGI [2]: > 100 µM
TGI [3]: > 100 µM
TGI [4]: > 100 µM
TGI [5]: > 100 µM
TGI [6]: > 100 µM
TGI [10]: > 100 µM
TGI [8]: > 100 µM
TGI [9]: > 100 µM

CCOC(=O)C(c1ccsc1)P(=O)(OCC)OCC (stereo not drawn)
TGI [1]: > 100 µM
TGI [2]: 80.1 µM
TGI [3]: 34 µM
TGI [4]: 19.3 µM
TGI [5]: 23.9 µM
TGI [6]: 44.4 µM
TGI [7]: 46.4 µM
TGI [8]: 28.9 µM
TGI [9]: 26.7 µM

Nc1ncnc2c1ncn2C1(CO)OC(CO)C(O)C1O (stereo not drawn)
TGI [1]: > 100 µM
TGI [3]: > 100 µM
TGI [4]: > 100 µM
TGI [6]: > 100 µM
TGI [10]: > 100 µM
TGI [7]: > 100 µM
TGI [8]: > 100 µM
TGI [9]: > 100 µM

Nc1ccccc1SC(CC(=O)c1ccccc1)c1c(Cl)cccc1Cl (stereo not drawn)
GI50 [1]: 3 µM
TGI [1]: 7.79 µM
GI50 [3]: 5.59 µM
TGI [3]: 19.1 µM
GI50 [4]: 1.59 µM
TGI [4]: 3.2 µM
GI50 [6]: 10.5 µM
TGI [6]: 22.9 µM
GI50 [10]: 2.67 µM
TGI [10]: 8.49 µM
GI50 [7]: 6.11 µM
TGI [7]: 21.5 µM
GI50 [8]: 4.23 µM
TGI [8]: 17.4 µM
GI50 [9]: 10.9 µM
TGI [9]: 29.9 µM

CN1C=C(C(N)=O)Cc2ccsc21
TGI [1]: > 100 µM
TGI [2]: > 100 µM
TGI [3]: > 100 µM
TGI [5]: > 100 µM
TGI [6]: > 100 µM
TGI [10]: > 100 µM
TGI [7]: > 100 µM
TGI [8]: > 100 µM
TGI [9]: > 100 µM

O=NN(CC(=O)NNc1ccccc1)CC(=O)NNc1ccccc1
GI50 [1]: 4.04 µM
TGI [1]: > 100 µM
GI50 [3]: 2.34 µM
TGI [3]: 7.81 µM
GI50 [4]: 1.22 µM
TGI [4]: > 100 µM
GI50 [5]: 0.479 µM
TGI [5]: 7.9 µM
GI50 [6]: > 100 µM
TGI [6]: > 100 µM
GI50 [10]: 5 µM
TGI [10]: > 100 µM
GI50 [7]: > 100 µM
TGI [7]: > 100 µM
GI50 [8]: > 100 µM
TGI [8]: > 100 µM
GI50 [9]: 5.69 µM
TGI [9]: > 59.2 µM

CN(C)c1ccc(-c2nc(N)nc3c2CCCC3)cc1
TGI [1]: > 100 µM
TGI [2]: 98.6 µM
TGI [3]: > 100 µM
TGI [4]: > 100 µM
TGI [5]: > 100 µM
TGI [6]: > 100 µM
TGI [10]: > 100 µM
TGI [8]: > 100 µM
TGI [9]: > 100 µM

N/N=C1\C(=O)N(c2ccc(Cl)c(Cl)c2)C(=O)C1C(=O)Nc1ccc(Cl)c(Cl)c1 (stereo not drawn)
TGI [1]: > 100 µM
TGI [2]: > 100 µM
TGI [3]: > 100 µM
TGI [5]: > 100 µM
TGI [6]: > 100 µM
TGI [10]: > 100 µM
TGI [7]: > 100 µM
TGI [8]: > 100 µM

COc1cc(/C=C2\CC3C4CC=C5C[C@@H](N6CCCC6)CC[C@]5(C)C4CC[C@]3(C)[C@H]2OC(C)=O)ccc1OCCCn1ccnc1 (stereo partly drawn)
GI50 [1]: 0.206 µM
TGI [1]: > 15.4 µM
GI50 [2]: 1.28 µM
TGI [2]: 9.12 µM
GI50 [3]: 1.21 µM
TGI [3]: 3.46 µM
GI50 [5]: 0.63 µM
TGI [5]: 2.26 µM
GI50 [6]: 1.46 µM
TGI [6]: > 50 µM
GI50 [10]: 1.22 µM
TGI [10]: 3.91 µM
GI50 [7]: 6.09 µM
TGI [7]: 17.7 µM
GI50 [8]: 0.704 µM
TGI [8]: 2.08 µM
GI50 [9]: 0.104 µM
TGI [9]: > 50 µM
